Test results published in patent publication US11873496B2, “Methods of altering gene expression by perturbing transcription factor multimers that structure regulatory loops” (Whitehead Institute for Biomedical Research, priority 2017, dated 2024).

Experiments:
[1] = tested on: YY1-YY1 enhancer-promoter interactions; test: H3K27ac HiChIP of enhancer-promoter interactions after YY1 degradation and washout; format: cell-based, mouse; details: mES cells
Experimental: HiChIP was performed as described in (Mumbach et al., 2016) with a few modifications. Ten million cells cross-linked for 10 min at room temperature with 1% formaldehyde in growth media and quenched in 0.125 M glycine. After washing twice with ice-cold PBS, the supernatant was aspirated and the cell pellet was flash frozen in liquid nitrogen and stored at −80° C.
Cross-linked cell pellets were thawed on ice, resuspended in 800 μL of ice-cold Hi-C lysis buffer (10 mM Tris-HCl pH 8.0, 10 mM NaCl, and 0.2% IGEPAL CA-630 with 1× cOmplete protease inhibitor (Roche, 11697498001)), and incubated at 4° C. for 30 minutes with rotation. Nuclei were pelleted by centrifugation at 2500 rcf for 5 min at 4° C. and washed once with 500 μL of ice-cold Hi-C lysis buffer. After removing supernatant, nuclei were resuspended in 100 μL of 0.5% SDS and incubated at 62° C. for 10 minutes. SDS was quenched by adding 335 μL of 1.5% Triton X-100 and incubating for 15 minutes at 37° C. After the addition of 50 μL of 10×NEB Buffer 2 (NEB, B7002) and 375 U of MboI restriction enzyme (NEB, R0147), chromatin was digested at 37° C. for 2 hours with rotation. Following digestion, MboI enzyme was heat inactivated by incubating the nuclei at 62° C. for 20 min. […]

[2] = molecular target: T1, FKBP degron-tagged YY1 protein (Mus musculus, UniProt Q00899+Q8C7D2); test: dTAG inducible degradation of FKBP tagged YY1 (western blot); format: cell-based
T1 construct: A clonal homozygous knock-in line expressing FKBP tagged YY1 was used for the degradation experiments; endogenous in cells; host or cells: V6.5 mES cells, clonal homozygous knock-in (repair plasmids pAW62.YY1.FKBP.knock-in.mCherry and pAW63.YY1.FKBP.knock-in.BFP)
Experimental: For the generation of the endogenously tagged lines, five hundred thousand mES cells were transfected with 2.5 ug Cas9 plasmid and 1.25 ug non-linearized repair plasmid 1 (pAW62.YY1.FKBP.knock-in.mCherry) and 1.25 ug non-linearized repair plasmid 2 (pAW63.YY1.FKBP.knock-in.BFP). Cells were sorted after 48 hours for the presence of GFP. Cells were expanded for five days and then sorted again for double positive mCherry and BFP cells. Thirty thousand mCherry+/BFP+ sorted cells were plated in a six-well plate in a 1:2 serial dilution (first well 15,000 cells, second well 7,500 cells, etc). The cells were grown for approximately one week in 2i medium and then individual colonies were picked using a stereoscope into a 96-well plate. Cells were expanded and genotyped by PCR (YY1_gPCR_3F/3R, Table S3). Clones with a homozygous knock-in tag were further expanded and used for experiments.
A clonal homozygous knock-in line expressing FKBP tagged YY1 was used for the degradation experiments. Cells were grown two passages off MEFs and then treated with dTAG-47 at a concentration of 500 nM for 24 hours.
The homozygous knock-in line expressing FKBP tagged YY1 was cultured on 2i+LIF media. Cells were treated with dTAG-47 at a concentration of 500 nM for 24 hours. After 24 hours of drug treatment, cells were washed three times with PBS and passaged onto a new plate. […]

HA-tagged YY1 = test: co-immunoprecipitation from nuclear extract treated with RNase A before IP with anti-tag antibodies, western blot quantification
[3] = tested on: linear DNA template containing YY1 binding sites; test: In vitro DNA circularization assay (T4 DNA ligase); format: biochemical; details: 0.25 nM DNA, 0.12 μg/μL protein, 20° C.; competitor 100 nM
Experimental: First, two plasmids (pAW49, pAW79) were generated. pAW49 contains YY1 binding sites separated by ˜3.5 kb of intervening DNA. pAW79 is identical except it contains filler DNA instead of the YY1 motifs. The intervening DNA was chosen based on looking at YY1 ChIP-seq and motif distribution in mES cells to identify regions that lacked YY1 occupancy and YY1 binding motifs. The YY1 binding motifs were chosen based on successful EMSAs (Sigova et al., 2015). Approximately 200 bp of sequence was added between the binding motifs and the termini in order to provide flexibility for the termini to ligate. The plasmid was built using Gibson assembly.
Next, a PCR was run using plasmid as a template to generate a linear piece of DNA (Table S5). This PCR product was PCR purified (Qiagen 28104) and then digested with BamHI (NEB R3136) and PCR purified. The BamHI digested template was used in the ligation assay.
The ligation assay was carried out as follows. Reactions were prepared on ice in 66 μL with the following components:
BSA control: 0.25 nM DNA, 1× T4 DNA ligase buffer (NEB B0202S), H2O, 0.12 μg/μL of BSA […]
Quantification was done using Image Lab version 5.2.1 (Bio-Rad Laboratories). First, band density of the starting product and ligation product were measured. Then the percent circularized was calculated: (ligation product)/(ligation product+starting band)*100. […]

YY1 = YY1 (Homo sapiens, UniProt P25490 P25490:1-414); test: EMSA; 20 fmol probe, 2 ug YY1, 5 mM MgCl2, 0.1 mM ZnCl2, poly dIdC, RT; abolished by 200-fold cold competitor; details: label: 5' biotin
Experimental: To generate the biotin labeled probe, 30-nucleotide-long 5' biotinylated single stranded oligonucleotides (IDT) were annealed in 10 mM Tris pH 7.5, 50 mM NaCl, and 1 mM EDTA at a 50 uM concentration. The same protocol was used to generate the cold competitor. The probe was serially diluted to a concentration of 10 fmol/4 and cold competitor to a concentration of 2 pmol/µL. 2 µL of diluted probe and cold competitor were used for each binding reaction for a final amount of 20 fmol labeled probe and 4 pmol cold competitor (200 fold excess) in each reaction.
Binding reactions were set-up in a 20 µL volume containing 1× Binding Buffer (10 mM Tris, 50 mM KCl, 1 mM DTT; pH 7.5), 2.5% Glycerol, 5 mM MgCl2, 50 ng/4 Poly dl dC, 0.05% Np-40, 0.1 mM ZnCl2, 10 mM Hepes, and 2 ug of recombinant YY1 protein. Binding reactions were pre-incubated for 20 mins at room temperature with or without the cold competitor. Labeled probe was then added to binding reactions and incubated for 80 minutes at room temperature. […] The DNA was then crosslinked to the membrane by placing the membrane on a Dark Reader Transilluminator for 15 mins. The membrane was allowed to air dry at room temperature overnight and chemiluminescence detected the following day. […]

T1 sequence (Q00899 with tags, fused parts or gaps): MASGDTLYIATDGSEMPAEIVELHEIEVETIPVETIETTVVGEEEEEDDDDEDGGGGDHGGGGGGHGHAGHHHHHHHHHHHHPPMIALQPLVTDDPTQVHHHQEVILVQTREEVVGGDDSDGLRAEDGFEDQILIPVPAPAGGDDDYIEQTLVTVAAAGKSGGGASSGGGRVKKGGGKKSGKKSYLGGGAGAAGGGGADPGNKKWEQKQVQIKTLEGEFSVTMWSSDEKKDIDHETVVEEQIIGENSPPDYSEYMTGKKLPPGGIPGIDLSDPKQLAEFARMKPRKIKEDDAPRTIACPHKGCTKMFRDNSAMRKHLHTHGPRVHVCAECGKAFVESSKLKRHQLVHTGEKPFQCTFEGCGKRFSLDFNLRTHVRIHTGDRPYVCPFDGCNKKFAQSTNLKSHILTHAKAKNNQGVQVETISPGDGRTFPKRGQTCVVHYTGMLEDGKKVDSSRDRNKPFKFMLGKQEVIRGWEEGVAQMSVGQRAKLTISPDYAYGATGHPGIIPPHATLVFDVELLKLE
T1 sequence (Q8C7D2 whole entry): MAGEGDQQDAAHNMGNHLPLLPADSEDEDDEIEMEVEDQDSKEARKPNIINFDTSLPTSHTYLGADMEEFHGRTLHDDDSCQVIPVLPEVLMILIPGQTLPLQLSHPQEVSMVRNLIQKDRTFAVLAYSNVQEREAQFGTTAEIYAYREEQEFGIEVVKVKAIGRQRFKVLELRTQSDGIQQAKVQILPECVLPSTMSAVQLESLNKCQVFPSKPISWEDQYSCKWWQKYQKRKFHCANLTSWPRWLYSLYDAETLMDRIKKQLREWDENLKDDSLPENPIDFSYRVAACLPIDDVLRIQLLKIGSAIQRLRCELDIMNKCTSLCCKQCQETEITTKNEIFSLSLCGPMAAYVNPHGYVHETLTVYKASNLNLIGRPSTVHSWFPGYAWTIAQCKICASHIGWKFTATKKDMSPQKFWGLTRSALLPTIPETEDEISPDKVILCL
T1 sequence (Q3U1J4 whole entry partner): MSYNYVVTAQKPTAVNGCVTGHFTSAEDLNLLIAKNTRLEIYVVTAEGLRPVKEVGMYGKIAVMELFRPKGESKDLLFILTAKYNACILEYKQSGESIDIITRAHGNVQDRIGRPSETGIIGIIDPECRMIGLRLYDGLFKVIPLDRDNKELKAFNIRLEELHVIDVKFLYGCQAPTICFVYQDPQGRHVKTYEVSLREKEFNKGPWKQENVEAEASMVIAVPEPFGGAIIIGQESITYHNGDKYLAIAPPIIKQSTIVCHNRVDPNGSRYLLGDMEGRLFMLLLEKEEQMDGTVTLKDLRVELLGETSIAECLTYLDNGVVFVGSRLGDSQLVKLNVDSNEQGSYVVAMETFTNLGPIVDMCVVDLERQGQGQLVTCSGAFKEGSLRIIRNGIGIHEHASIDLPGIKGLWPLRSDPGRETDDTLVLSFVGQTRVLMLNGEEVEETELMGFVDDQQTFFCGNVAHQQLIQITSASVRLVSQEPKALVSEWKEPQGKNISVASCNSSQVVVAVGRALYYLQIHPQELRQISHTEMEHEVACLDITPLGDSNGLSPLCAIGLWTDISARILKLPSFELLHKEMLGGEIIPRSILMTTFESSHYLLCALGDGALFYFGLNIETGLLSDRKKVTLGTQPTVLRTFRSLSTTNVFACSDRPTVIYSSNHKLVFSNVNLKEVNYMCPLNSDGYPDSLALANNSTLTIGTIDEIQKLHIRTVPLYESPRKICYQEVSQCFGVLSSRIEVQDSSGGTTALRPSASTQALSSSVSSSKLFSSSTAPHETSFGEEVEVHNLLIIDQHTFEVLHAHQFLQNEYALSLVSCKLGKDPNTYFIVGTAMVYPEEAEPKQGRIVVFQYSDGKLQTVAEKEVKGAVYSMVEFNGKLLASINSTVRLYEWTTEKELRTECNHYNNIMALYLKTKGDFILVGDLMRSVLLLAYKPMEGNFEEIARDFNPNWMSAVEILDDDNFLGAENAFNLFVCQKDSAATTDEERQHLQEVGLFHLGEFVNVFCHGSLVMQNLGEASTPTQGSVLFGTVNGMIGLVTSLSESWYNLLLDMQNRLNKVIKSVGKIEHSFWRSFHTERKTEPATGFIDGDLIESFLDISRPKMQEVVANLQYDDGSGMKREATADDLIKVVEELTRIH
Sequence of HA-tagged YY1 (P25490 whole entry): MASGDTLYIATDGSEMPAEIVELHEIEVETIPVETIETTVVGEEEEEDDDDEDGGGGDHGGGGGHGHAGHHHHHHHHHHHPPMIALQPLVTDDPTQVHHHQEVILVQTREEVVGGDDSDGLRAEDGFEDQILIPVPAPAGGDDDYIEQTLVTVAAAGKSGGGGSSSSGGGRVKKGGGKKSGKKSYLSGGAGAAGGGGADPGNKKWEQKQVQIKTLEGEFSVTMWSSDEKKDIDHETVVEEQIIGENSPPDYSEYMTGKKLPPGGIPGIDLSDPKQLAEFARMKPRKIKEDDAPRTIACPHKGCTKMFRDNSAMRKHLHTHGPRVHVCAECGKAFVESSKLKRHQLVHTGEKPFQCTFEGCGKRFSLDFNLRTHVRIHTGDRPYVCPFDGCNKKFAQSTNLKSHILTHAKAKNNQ
Sequence of YY1 (P25490 whole entry, one chain of several): as the sequence (P25490 whole entry) above

## CC[C@H](C(=O)N1CCCC[C@H]1C(=O)O[C@H](CCc1ccc(OC)c(OC)c1)c1ccccc1OCC(=O)NCCCCCCCCNc1ccc2c(c1)C(=O)N(C1CCC(=O)NC1=O)C2=O)c1cc(OC)c(OC)c(OC)c1 (stereo partly drawn) [dTAG-47, (2S)-(1R)-3-(3,4-dimethoxyphenyl)-1-(2-(2-((8-((2-(2,6-dioxopiperidin-3-yl)-1,3-dioxoisoindolin-5-yl)amino)octyl)amino)-2-oxoethoxy)phenyl)propyl 1-((S)-2-(3,4,5-trimethoxyphenyl)butanoyl)piperidine-2-carboxylate]
[1]; treated
  enhancer-promoter interactions after YY1 degradation (H3K27ac HiChIP): loss in enhancer-promoter interactions
[1]; washout
  enhancer-promoter interactions after washout and recovery of YY1 levels (H3K27ac HiChIP): substantial increase in enhancer-promoter interactions
[2]; FKBP degron tag knocked-in to both alleles of Yy1, mES cells, 24 hours treatment
  YY1 protein degradation: rapid proteasome-mediated degradation
[2]; after 24 hours treatment at 500 nM, drug withdrawal
  washout time allowing recovery of YY1 protein levels: 5 days

## FLAG-tagged YY1
HA-tagged YY1
  reduction in the amount of co-immunoprecipitated YY1 partner protein after RNase A treatment: 60%

## bovine serum albumin (BSA): control protein in the DNA circularization assay
[3]
  rate of DNA circularization: did not increase the rate of DNA ligation

B1: YY1 EMSA probe (dsDNA)
DNA 1: TCGCTCCCCGGCCATCTTGGCGGCTGGTGT
DNA 2: ACACCAGCCGCCAAGATGGCCGGGGAGCGA
YY1
  binding result: binds

B2: competing 200 base pair DNA fragment: 200 base pair DNA fragment containing the YY1 consensus binding sequence, SEQ ID NO: 28 (nucleic acid)
DNA: GAGCAACAACAACAACGAACCGGTTCGACCTCCCCGGCCATCTTTCGACCTCCCCGGCCATCTTTCGACCTCCCCGGCCATCTTTCGACCTCCCCGGCCATCTTTCGACCTCCCCGGCCATCTTTCGACCTCCCCGGCCATCTTTCGACCTCCCCGGCCATCTTTCGACCTCCCGTCGACAGAGGCAGCAAAAGCCAGA
modifications: competitor DNA
[3]
  rate of DNA circularization: abrogated circularization
